# Laboratory results published in patent US4977173A, “Aminomethyl oxooxazolidinyl ethenylbenzene derivatives useful as antibacterial agents” (E. I. Du Pont de Nemours and Company, priority 1989, dated 1990).
# Where two headings read alike, the source gives them in different places.
# Tests used:
# Staphylococcus aureus [1] = assay: In vivo activity against Staphylococcus aureus in an acute lethal mouse model; settings: mice infected intraperitoneally, dosed one and four hours post-infection, survival on seventh day
# Method: Determinations of in vivo efficacy are performed by inoculating mice intraperitoneally with cultures of the infecting organism diluted to produce 100% mortality in control animals within twenty-four hours. The culture of S. aureus used to infect the animals was diluted to the required bacterial density using 5% aqueous hog gastric mucin. The compounds are dissolved or suspended in 0.25% aqueous Methocel® (Methocel®: Hydroxypropyl Methylcellulose, E15 Premium, Dow Chemical Company) for oral administration or sterile distilled water containing 5% dimethylsulfoxide (Fisher Scientific Company, Fairlawn, N.J.) for subcutaneous administration. The mice are dosed at one hour and at four hours post-infection. Mortality is recorded daily until test termination seven days post infection. The number of survivors in each treatment group on the seventh day after infection is used in the calculation of the ED50, the dose of compound that protects 50% of the mice (Litchfield, J. T. and Wildoxon. A simplified method for evaluating dose-effect experiments. J. Pharmacol Exp. Ther., 96:99-113, 1949).
# Escherichia coli = assay: In vitro broth microdilution minimal inhibitory concentration (24-hour MIC), Escherichia coli; format: cell-based; settings: Mueller-Hinton broth, standard microdilution; for MIC: read-out: Minimum Inhibitory Concentration
# Text: (§1) As shown in Table VII compounds of formula I exert an in vitro antibacterial effect.
# Staphylococcus aureus [2] = assay: In vitro broth microdilution minimal inhibitory concentration (24-hour MIC), Staphylococcus aureus; format: cell-based; settings: Mueller-Hinton broth, standard microdilution; for MIC: read-out: Minimum Inhibitory Concentration
# Text: as §1
# [3] = Staphylococcus aureus, 168 h, Oral Administration, read-out: ED50
# [4] = Staphylococcus aureus, sc, 168 h, Subcutaneous Administration, read-out: ED50
SMILES,ED50 (Staphylococcus aureus [1]; [3]) [mg/kg],ED50 (Staphylococcus aureus [1]; [4]) [mg/kg],MIC (Escherichia coli) [µg/mL],MIC (Staphylococcus aureus [2]) [µg/mL],"ED50 (Staphylococcus aureus [1]; Oral Administration, 10080 min) [mg/kg]","ED50 (Staphylococcus aureus [1]; Subcutaneous Administration, 10080 min) [mg/kg]",Minimum Inhibitory Concentration (Escherichia coli) [µg/mL],Minimum Inhibitory Concentration (Staphylococcus aureus [2]) [µg/mL]
CC(=O)NC[C@H]1CN(c2ccc(C=C(C(C)=O)C(C)=O)cc2)C(=O)O1 [Example 28],> 90,> 90,> 128,16,–,–,–,–
CC(=O)NC[C@H]1CN(c2ccc(/C(C)=C/C#N)c(C)c2)C(=O)O1 [Example 3],6.4,5.1,> 128,2,–,–,–,–
"CSC(C#N)=Cc1ccc(N2CC(CNC(C)=O)OC2=O)cc1 (stereo not drawn) [Example 21, (l)-N-[3-(4-(2-Cyano-2-methylsulfenylethenyl)phenyl]-2-oxooxazolidin-5-ylmethyl]acetamide]",–,–,–,–,> 90,11.8,> 128,4
CC/C(=C\C#N)c1ccc(N2C[C@H](CNC(C)=O)OC2=O)cc1 [Example 7],3.1,2.1,> 128,1,–,–,–,–
CC(=O)/C=C/c1ccc(N2C[C@H](CNC(C)=O)OC2=O)cc1 [Example 60],–,51.9,> 128,4,–,–,–,–
CC/C(=C\c1ccc(N2C[C@H](CNC(C)=O)OC2=O)cc1)[N+](=O)[O-] [Example 29],> 90,> 90,> 128,1,–,–,–,–
CC(=O)NC[C@H]1CN(c2ccc(/C(=C/C#N)c3ccc(F)cc3)cc2)C(=O)O1 [Example 6],–,–,> 128,> 128,–,–,–,–
CC(=O)NC[C@H]1CN(c2ccc(/C(C)=C(\C)C#N)cc2)C(=O)O1 [Example 9],3.8,2.5,> 128,2,–,–,–,–
CC(=O)NC[C@H]1CN(c2ccc(/C=C(\C)C#N)cc2)C(=O)O1 [Example 12],2.9,1.9,> 128,1,–,–,–,–
"CCOC(=O)/C=C/c1ccc(N2C[C@H](CNC(C)=O)OC2=O)cc1 [Example 22, (l)-N-[3-[4-(E-2-Carboethoxyethenyl)-phenyl]-2-oxooxazolidin-5-ylmethyl]acetamide]",> 90,> 90,> 128,8,–,–,–,–
"CC(=O)NC[C@H]1CN(c2ccc(/C=C/C#N)cc2)C(=O)O1 [Example 2, (l)-N-[3-[4-(E-2-Cyanoethenyl)phenyl]-2-oxooxazolidin-5-ylmethyl]acetamide]",3.5,2.8,> 128,4,–,–,–,–
CCC/C(=C\c1ccc(N2C[C@H](CNC(C)=O)OC2=O)cc1)[N+](=O)[O-] [Example 30],> 90,> 90,> 128,4,–,–,–,–
CCC/C(=C\C#N)c1ccc(N2C[C@H](CNC(C)=O)OC2=O)cc1 [Example 8],> 90,> 90,> 128,2,–,–,–,–
CC(=O)NC[C@H]1CN(c2ccc(/C(C)=C\C#N)cc2)C(=O)O1 [Example 13],–,–,> 128,8,–,–,–,–
